Assay results: patent US8093229B2, “Alkynyl pyrrolo[2,3-d]pyrimidines and related analogs as HSP90-inhibitors” (Conforma Therapeutics Corporation, priority 2005, dated 2012)

Tests used:
Format in all cases: cell-based
[1] = tested on: HER2/Neu protein; experiment: Her2 degradation assay; settings: MCF7 cells, 16 h
Description: [drawing 219] wherein R^3′ is not alkynyl, which were disclosed in U.S. patent application Ser. No. 10/945,851 and PCT Application US04/31248. The pyrrolopyrimidine compounds specified in the EXAMPLE sections of the above patent applications carry either no substituent or a substituted alkyl group. […] A simple alkyl or a substituted alkyl at C-5 (ie R^3=alkyl or substituted alkyl) can only bring two-fold additional activity. Conversely, if C-5 is alkyne substituted, the potency increases approximately 10-20 fold. (See, Series A: compounds A, B, C and D below).
Many cancers are associated with the over expression Her2 protein. It has been shown that compounds able to diminish Her2 levels show good promise as anti-cancer agents.
MCF7 breast carcinoma cells (ATCC) were grown in Dulbecco's modified Eagle's medium (DMEM) containing 10% fetal bovine serum (FBS) and 10 mM HEPES, and plated in 24 well plates (50% confluent). […] Samples were analyzed using a FACSCalibur™ flow cytometer (Becton Dickinson, San Jose, Calif.) equipped with Argon-ion laser that emits 15 mW of 488 nm light for excitation of the PE fluorochrome. […] A fluorescence histogram was generated and the mean fluorescence intensity (MFI) of each sample was determined using Cellquest software. […] Percent degradation of Her2 was calculated as follows: % Her2 degraded=[(MFI untreated cells−MFI treated cells)/MFI untreated cell]×100. […]

[2] = tested on: BT474 breast tumor cell line; experiment: MTS assay / secondary assay of killing tumor cells, BT474; settings: Homo sapiens, BT-474
Experimental: (§1) The difference in potency index between alkynes and non-alkynes measured by a secondary assay is also striking. The secondary assay measures the efficiency of killing tumor cells. […] EC50 is defined as the amount of compound added to effect a 50% reduction in viable cell number. Selected compounds were tested on cells of MCF7 and BT474 breast tumor cell lines. […] TABLE 2 summarized the result of the assay.
(§2) 3-(4,5-dimethylthiazol-2-yl)-5-(3-carboxymethoxyphenyl)-2-(4-sulfophenyl)-2H-tetrazolium assays measure the cytotoxicity of geldanamycin derivatives. MTS (3-(4,5-dimethylthiazol-2-yl) -5-(3-carboxymethoxyphenyl)-2-(4-sulfophenyl)-2H-tetrazolium) is a tetrazolium dye that is converted to a formazan product by dehydrogenase enzymes of metabolically active cells (Corey, A. et al. “Use of an aqueous soluble tetrazolium/formazan assay for cell growth assays in culture,” Cancer Commun. 1991, 3, 207-212). Cells were seeded in 96 well plates at 2000 cells/well and allowed to adhere overnight in Dulbecco's modified Eagle's medium supplemented with 10% fetal bovine serum. The final culture volume was 100 μl. Viable cell number was determined by using the Celltiter 96 AQueous Non-radioactive Cell Proliferation Assay (Promega, Madison Wis.). The MTS/PMS (phenazine methosulfate) solution was mixed at a ratio of 20:1, and 20 μL was added per well to 100 μl of culture medium. After 2-4 hours, the formation of the formazan product was measured at 490 nm absorbance using a multiwell plate spectrophotometer. Background was determined by measuring the Abs 490 nm of cell culture medium and MTS-PMS in the absence of cells and was subtracted from all values. Percent viable cells was calculated as follows: % viable cells=(Abs at 490 nm treated cells/Abs at 490 nm untreated cells)×100

[3] = tested on: MCF7 breast carcinoma cells; experiment: MTS assay / secondary assay of killing tumor cells, MCF7; settings: for IC50: Homo sapiens, MCF7
Experimental: as §1, §2
The effect of selected compounds of the invention on MCF7 breast carcinoma cells according to the MTS assay is summarized in table 3. IC50 was defined as the concentration of the compound which gave rise to 50% reduction in viable cell number.

Row | Compound | IC50 [1] | IC50 [2] | IC50 [3] | potency index relative to 17-AAG ([3]; cell line not specified, MCF7 and BT474 tested)
1 | COc1c(C)cnc(Cn2cc(C#CCO)c3c(Cl)nc(N)nc32)c1C [Example 1, 3-[2-amino-4-chloro-7-(4-methoxy-3,5-dimethyl-pyridin-2-ylmethyl)-7H-pyrrolo [2,3-d]pyrimidin-5-yl]-prop-2-yn-1-ol] | 12 nM | 20 nM | 130 nM | –
2 | COc1c(C)cnc(Cn2cc(C#CCCO)c3c(Cl)nc(N)nc32)c1C [Example 2, 4-[2-Amino-4-chloro-7-(4-methoxy-3,5-dimethyl-pyridin-2-ylmethyl)-7H-pyrrolo[2,3-d]pyrimidin-5-yl]-but-3-yn-1-ol] | – | 6 nM | 13 nM | –
3 | COc1c(C)cnc(Cn2cc(C#CCCCO)c3c(Cl)nc(N)nc32)c1C [Example 3, 5-[2-Amino-4-chloro-7-(4-methoxy-3,5-dimethyl-pyridin-2-ylmethyl)-7H-pyrrolo[2,3-d]pyrimidin-5-yl]-pent-4-yn-1-ol] | – | 8 nM | 13 nM | –
4 | COc1c(C)cnc(Cn2cc(C#CCN(C(C)C)C(C)C)c3c(Cl)nc(N)nc32)c1C [Example 5, 4-Chloro-5-(3-diisopropylamino-prop-1-ynyl)-7-(4-methoxy-3,5-dimethyl-pyridin-2-ylmethyl)-7H-pyrrolo[2,3-d]pyrimidin-2-ylamine] | 55 nM | 80 nM | 100 nM | –
5 | COc1c(C)cnc(Cn2cc(C#CCCCCO)c3c(Cl)nc(N)nc32)c1C [Example 7, 6-[2-Amino-4-chloro-7-(4-methoxy-3,5-dimethyl-pyridin-2-ylmethyl)-7H-pyrrolo[2,3-d]pyrimidin-5-yl]-hex-5-yn-1-ol] | – | 20 nM | 200 nM | –
6 | CCN(CC)C(=O)CCC#Cc1cn(Cc2ncc(C)c(OC)c2C)c2nc(N)nc(Cl)c12 [Example 10] | – | 50 nM | 700 nM | –
7 | COc1c(C)cnc(Cn2cc(C#CCCC(=O)N3CCN(C)CC3)c3c(Cl)nc(N)nc32)c1C [Example 11] | – | 20 nM | 100 nM | –
8 | COc1c(C)cnc(Cn2cc(C#CCCC(N)=O)c3c(Cl)nc(N)nc32)c1C [Example 12, 5-[2-Amino-4-chloro-7-(4-methoxy-3,5-dimethyl-pyridin-2-ylmethyl)-7H-pyrrolo[2,3-d]pyrimidin-5-yl]-pent-4-ynoic acid amide] | – | 20 nM | 30 nM | –
9 | COc1c(C)cnc(Cn2cc(C#CCCCNC(=O)OC(C)(C)C)c3c(Cl)nc(N)nc32)c1C [Example 15, {5-[2-Amino-4-chloro-7-(4-methoxy-3,5-dimethyl-pyridin-2-ylmethyl)-7H-pyrrolo [2,3-d]pyrimidin-5-yl]-pent-4-ynyl}-carbamic acid tert-butyl ester] | – | 1000 nM | 60 nM | –
10 | COc1c(C)cnc(Cn2cc(C#CCCCN)c3c(Cl)nc(N)nc32)c1C [Example 16, 5-(5-Amino-pent-1-ynyl)-4-chloro-7-(4-methoxy-3,5-dimethyl-pyridin-2-ylmethyl)-7H-pyrrolo [2,3-d]pyrimidin-2-ylamine] | – | > 10000 nM | 90 nM | –
11 | COc1c(C)cnc(Cn2cc(C#CCCCN3C(=O)c4ccccc4C3=O)c3c(Cl)nc(N)nc32)c1C [Example 17] | – | 100 nM | 10 nM | –
12 | COc1c(C)cnc(Cn2cc(C#CCCN3CCOCC3)c3c(Cl)nc(N)nc32)c1C [Example 18] | – | 1000 nM | 50 nM | –
13 | COc1c(C)cnc(Cn2cc(C#CCCCN3CCOCC3)c3c(Cl)nc(N)nc32)c1C [Example 19] | – | 1000 nM | 100 nM | –
14 | COc1c(C)cnc(Cn2cc(C#CCCNC(C)(C)C)c3c(Cl)nc(N)nc32)c1C [Example 20, 5-(4-tert-Butylamino-but-1-ynyl)-4-chloro-7-(4-methoxy-3,5-dimethyl-pyridin-2-ylmethyl) -7H-pyrrolo[2,3-d]pyrimidin-2-ylamine] | – | 23 nM | 130 nM | –
15 | COc1c(C)cnc(Cn2cc(C#CCCCNC(C)(C)C)c3c(Cl)nc(N)nc32)c1C [Example 21, 5-(5-tert-Butylamino-pent-1-ynyl)-4-chloro-7-(4-methoxy-3,5-dimethyl-pyridin-2-ylmethyl) -7H-pyrrolo[2,3-d]pyrimidin-2-ylamine] | – | 30 nM | 230 nM | –
16 | COc1c(C)cnc(Cn2cc(C#CCOC(=O)CN(C)C)c3c(Cl)nc(N)nc32)c1C [Example 22, Dimethylamino-acetic acid 3-[2-amino-4-chloro-7-(4-methoxy-3,5-dimethyl-pyridin-2-ylmethyl)-7H-pyrrolo[2,3-d]pyrimidin-5-yl]-prop-2-ynyl ester] | – | 20 nM | 200 nM | –
17 | COc1c(C)cnc(Cn2cc(C#CCCN3C(=O)c4ccccc4C3=O)c3c(Cl)nc(N)nc32)c1C [H] | – | – | – | more potent than 17-AAG
